This is an account of results in PMC10279920, “Single-molecule visualization of Pif1 helicase translocation on single-stranded DNA” (The Journal of Biological Chemistry, 2023).

Assay in all cases: ATP hydrolysis, [γ-32P]-ATP TLC, Michaelis-Menten fit
Common to all, as to format: biochemical
Conditions in all cases: M13 ssDNA 1.5 μM nt, 10 nM Pif1, 5 mM MgCl2, 60 mM KCl, pH 7.5, 30 °C, no RPA; labelled compound as tracer

Experiment [1] addresses T1, GFP-Pif1 (Saccharomyces cerevisiae, UniProt P07271, H705A).
T1 construct: N-terminal superfolder GFP fusion of nuclear isoform residues 40-859, pRSF-Duet-1, E. coli Rosetta2(DE3), Ni-NTA purified
T1 sequence (P07271 40-859 H705A): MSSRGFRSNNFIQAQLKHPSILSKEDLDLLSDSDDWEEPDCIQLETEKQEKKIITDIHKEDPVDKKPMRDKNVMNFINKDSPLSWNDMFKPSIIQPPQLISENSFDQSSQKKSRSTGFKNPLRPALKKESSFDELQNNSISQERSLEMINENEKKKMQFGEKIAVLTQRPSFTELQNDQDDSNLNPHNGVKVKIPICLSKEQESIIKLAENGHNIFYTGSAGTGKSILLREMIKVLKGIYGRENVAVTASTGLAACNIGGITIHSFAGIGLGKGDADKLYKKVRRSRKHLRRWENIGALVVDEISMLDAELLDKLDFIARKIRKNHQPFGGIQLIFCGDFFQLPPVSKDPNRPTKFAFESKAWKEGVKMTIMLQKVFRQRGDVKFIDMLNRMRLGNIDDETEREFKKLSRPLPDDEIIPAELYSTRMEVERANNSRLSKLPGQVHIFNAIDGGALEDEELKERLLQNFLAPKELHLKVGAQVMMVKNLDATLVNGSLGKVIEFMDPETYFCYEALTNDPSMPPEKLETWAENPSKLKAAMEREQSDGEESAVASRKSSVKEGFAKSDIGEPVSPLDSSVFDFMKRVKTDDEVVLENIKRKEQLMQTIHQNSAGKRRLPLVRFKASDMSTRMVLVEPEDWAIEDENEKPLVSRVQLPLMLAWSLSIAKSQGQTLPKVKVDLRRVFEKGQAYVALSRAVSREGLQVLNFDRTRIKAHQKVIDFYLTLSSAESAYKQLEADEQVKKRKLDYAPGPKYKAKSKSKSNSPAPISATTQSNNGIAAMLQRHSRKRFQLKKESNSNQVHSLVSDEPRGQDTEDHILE

Experiment [2] has as its target T2, GFP-Pif1 (Saccharomyces cerevisiae, UniProt P07271, V385A).
T2 construct: N-terminal superfolder GFP fusion of nuclear isoform residues 40-859, pRSF-Duet-1, E. coli Rosetta2(DE3), Ni-NTA purified
T2 sequence (P07271 40-859 V385A): T1 sequence (P07271 40-859 H705A) with V346A, A666H

In experiment [3] the target is T3, GFP-Pif1 (Saccharomyces cerevisiae, UniProt P07271, G291P).
T3 construct: N-terminal superfolder GFP fusion of nuclear isoform residues 40-859, pRSF-Duet-1, E. coli Rosetta2(DE3), Ni-NTA purified
T3 sequence (P07271 40-859 G291P): T1 sequence (P07271 40-859 H705A) with G252P, A666H

The structures appear in SMILES notation. Changes are numbered by the printed parent chain.

Broadly, the Km is the concentration of substrate that gives half-maximal velocity. Regarding `Nc1ncnc2c1ncn2[C@@H]1O[C@H](COP(=O)(O)OP(=O)(O)OP(=O)(O)O)[C@@H](O)[C@H]1O` [ATP], the Km on GFP-Pif1 [1] is 1210 µM; at GFP-Pif1 [2], 1280 ± 540 µM; at GFP-Pif1 [3], 760 ± 290 µM.
